Measured values taken from patent publication US11382956B2, “Amylin analogues” (Zealand Pharma A/S, priority 2016, dated 2022).
Numbered stars: 1 amine (or outer) side, 2 acyl side, 3 side chain; on linkers, the order of the positions; unused ones are H or OH. Bridge positions count the residues as written; N and C are the ends. Square brackets hold non-standard residues; d marks the D form. Peptide text beside a SMILES is read from it. * marks the point of attachment. C20 diacid = O=C(O)CCCCCCCCCCCCCCCCCCC(=O)*; γGlu = O=C(O)[C@H](CCC(=O)[*:2])N[*:1]; Hyp = O=C(O)[C@@H]1C[C@@H](O)CN1; NMeI = CC[C@H](C)[C@H](NC)C(=O)O; Aad = N[C@@H](CCCC(=O)O)C(=O)O; Orn = NCCC[C@H](N)C(=O)O; Sar = CNCC(=O)O

How the values were obtained:
[1] = Assessment of physical stability: fibril formation by Thioflavin T fluorescence; format: physicochemical; set-up: key: FND = fibrillation not detected; FD = fibrillation detected; settings: 1 mg/mL peptide; for Fibrillation (in buffer) pH4 acetate: 50 mM acetate buffer pH 4.0, 96 hours at 40° C.; for Fibrillation (in buffer) pH7 histidine: 50 mM histidine buffer pH 7.0, 96 hours at 40° C.; for Fibrillation (in buffer) pH7 phosphate: 50 mM phosphate buffer pH 7.0, 96 hours at 40° C.
How it was run: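 Test peptide at 1 mg/mL with 40 μM ThT in 50 mM phosphate pH 7.0, 50 mM histidine pH 7.0, or 50 mM acetate pH 4.0, in triplicate. Fluorescence read every 10 min after 300 s agitation for 96 hours at 40° C; significant intensity rise scored as fibrillation detected (FD).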

[2] = target: T1, recombinant human calcitonin receptor (hCT-R) (Homo sapiens, UniProt P30988); test: hCT-R cAMP assay (AlphaScreen) in 1321N1 cells; format: cell-based; settings: cAMP formation, 45 min stimulation
T1 construct: host or cells: human astrocytoma cell line 1321N1
T1 sequence (P30988 25-474): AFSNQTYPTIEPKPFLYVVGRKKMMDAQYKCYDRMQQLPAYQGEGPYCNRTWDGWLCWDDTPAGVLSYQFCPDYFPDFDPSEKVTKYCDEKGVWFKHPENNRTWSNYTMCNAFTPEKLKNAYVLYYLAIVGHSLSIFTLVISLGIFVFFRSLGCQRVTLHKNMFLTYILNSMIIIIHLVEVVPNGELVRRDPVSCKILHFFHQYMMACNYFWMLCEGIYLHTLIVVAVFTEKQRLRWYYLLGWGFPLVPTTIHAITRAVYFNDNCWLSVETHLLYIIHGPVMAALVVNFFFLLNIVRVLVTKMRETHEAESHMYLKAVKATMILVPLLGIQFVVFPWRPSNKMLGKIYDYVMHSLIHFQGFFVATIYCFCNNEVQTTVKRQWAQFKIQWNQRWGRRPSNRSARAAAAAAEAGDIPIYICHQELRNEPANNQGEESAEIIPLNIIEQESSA
How it was run: (§1)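 1321N1 astrocytoma cells expressing recombinant human calcitonin receptor alone or with RAMP3 (AMY3) stimulated 45 min at room temperature with peptide in IBMX-containing buffer. cAMP quantified by AlphaScreen after 1 h bead incubation; EC50 fitted from at least 7 concentrations.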

[3] = Pharmacokinetic (PK) profiling in rats; settings: male, Sprague Dawley, plasma; rat, single sc bolus 30 nmol/kg; read-out: in vivo half life t1/2 (plasma terminal elimination half-life) (converted)
Description: Sprague Dawley male rats were given a single subcutaneous (sc) bolus of each peptide to be tested, as specified below.
30 nmol/kg doses of compound were administered. Blood samples were drawn from the tail vein prior to dosing and at 24 and 96 hours after dosing. The rats were euthanized immediately after the last blood sampling by concussion and cervical dislocation.
The dosing vehicle used for each test peptide was a mannitol-containing histidine buffer (pH 7.0). Plasma samples were analyzed after precipitation with ethanol by liquid chromatography mass spectrometry (LC-MS/MS). Mean plasma concentrations were used for calculation of the pharmacokinetic parameters.
Plasma terminal elimination half-life (t1/2) was determined as In(2)/λz, where λz is the magnitude of the slope of the log linear regression of the log concentration versus time profile during the terminal phase.

[4] = Effect on acute food intake and body weight in normal Sprague Dawley rats; format: in vivo, Sprague Dawley (SD) rats; settings: Dose: 30 nmol/kg sc, vehicle-corrected
[5] = target: T2, recombinant human amylin 3 receptor (hAMYR3) (Homo sapiens, UniProt O60896+P30988); test: hAMYR3 cAMP assay (AlphaScreen) in 1321N1 cells; format: cell-based; settings: cAMP formation, 45 min stimulation
T2 construct: host or cells: human astrocytoma cell line 1321N1
T2 sequence (P30988 25-474): T1 sequence (P30988 25-474)
T2 sequence (O60896 24-148 partner): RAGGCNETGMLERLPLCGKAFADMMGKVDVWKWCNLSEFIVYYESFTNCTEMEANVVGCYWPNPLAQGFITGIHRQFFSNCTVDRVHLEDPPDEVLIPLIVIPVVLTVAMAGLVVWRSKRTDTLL
How it was run: as §1

[6] = Assessment of chemical stability in 40 mM buffers at 40° C. (RP-HPLC); format: physicochemical; settings: 1 mg/mL; for % degradation after 72 h at 40° C. pH4 acetate: acetate buffer pH 4, 72 h; for % degradation after 14 days at 40° C. pH4 acetate: acetate buffer pH 4, 14 days; for % degradation after 72 h at 40° C. pH6 phosphate: phosphate buffer pH 6, 72 h; for % degradation after 14 days at 40° C. pH6 phosphate: phosphate buffer pH 6, 14 days; for % degradation after 72 h at 40° C. pH7 phosphate: phosphate buffer pH 7, 72 h; for % degradation after 14 days at 40° C. pH7 phosphate: phosphate buffer pH 7, 14 days
How it was run: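 Peptides at 1 mg/mL in 40 mM acetate pH 4 or phosphate pH 6 and 7 were held at 40° C for 3 and 14 days. Main-peak area-% by C8 RP-HPLC, UV 220 nm; % degradation = change in main-peak area-% versus t=0.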

Compound | Fibrillation (in buffer) pH4 acetate [1] | Fibrillation (in buffer) pH7 histidine [1] | Fibrillation (in buffer) pH7 phosphate [1] | EC50 [2] [nM] | half-life [3] [h] | Body weight reduction in % at 48 h [4] [%] | Food intake reduction in % at 48 h [4] [%] | EC50 [5] [nM] | % degradation after 72 h at 40° C. pH4 acetate [6] [%] | % degradation after 14 days at 40° C. pH4 acetate [6] [%] | % degradation after 72 h at 40° C. pH6 phosphate [6] [%] | % degradation after 14 days at 40° C. pH6 phosphate [6] [%] | % degradation after 72 h at 40° C. pH7 phosphate [6] [%] | % degradation after 14 days at 40° C. pH7 phosphate [6] [%]
CC[C@H](C)[C@@H](C(=O)N[C@@H](CC(C)C)C(=O)N[C@@H](CO)C(=O)N[C@@H](CO)C(=O)N[C@H](C(=O)N[C@@H](CCC(=O)O)C(=O)N[C@H](C(=O)NCC(=O)N[C@@H](CO)C(=O)N[C@@H](CC(N)=O)C(=O)N[C@H](C(=O)N1C[C@H](O)C[C@H]1C(N)=O)[C@@H](C)O)C(C)C)[C@@H](C)O)N(C)C(=O)[C@H](C)NC(=O)CN(C)C(=O)[C@H](Cc1ccccc1)NC(=O)[C@H](CO)NC(=O)[C@H](CO)NC(=O)[C@H](CCCNC(=N)N)NC(=O)[C@H](CCC(N)=O)NC(=O)[C@H](CC(C)C)NC(=O)[C@H](Cc1ccccc1)NC(=O)[C@H](Cc1c[nH]cn1)NC(=O)[C@H](C)NC(=O)[C@H](CC(C)C)NC(=O)[C@H](CCCNC(=N)N)NC(=O)[C@H](CCC(=O)O)NC(=O)[C@@H](NC(=O)[C@H](C)NC(=O)[C@@H]1CCCCNC(=O)C[C@H](NC(=O)[C@H](CCCNC(=N)N)NC(=O)CC[C@H](NC(=O)CCCCCCCCCCCCCCCCCCC(=O)O)C(=O)O)C(=O)NCC(=O)N[C@@H]([C@@H](C)O)C(=O)N[C@@H](C)C(=O)N[C@@H]([C@@H](C)O)C(=O)N1)[C@@H](C)O [Compound 18, [19CD]-isoGlu-RD()GTATK()ATERLAHFLQRSSF-Gly(Me)-A-Ile(Me)-LSSTEVGSNT-Hyp-NH2] ({C20 diacid-γGlu}-RDGTATKATERLAHFLQRSSF[Sar]A[NMeI]LSSTEVGSNT[Hyp]-NH2; lactam 2-7) | FND | FND | FND | 0.085 | 30.1 | 10 | 58 | 0.031 | <1 | <1 | <1 | 1.0 | <1 | 1.9
CC[C@H](C)[C@@H](C(=O)N[C@@H](CC(C)C)C(=O)N[C@@H](CO)C(=O)N[C@@H](CO)C(=O)N[C@H](C(=O)N[C@@H](CCC(=O)O)C(=O)N[C@H](C(=O)NCC(=O)N[C@@H](CO)C(=O)N[C@@H](CC(N)=O)C(=O)N[C@H](C(=O)N1C[C@H](O)C[C@H]1C(N)=O)[C@@H](C)O)C(C)C)[C@@H](C)O)N(C)C(=O)[C@H](C)NC(=O)CN(C)C(=O)[C@H](Cc1ccccc1)NC(=O)[C@H](CO)NC(=O)[C@H](CO)NC(=O)[C@H](CCCNC(=N)N)NC(=O)[C@H](CCC(N)=O)NC(=O)[C@H](CC(C)C)NC(=O)[C@H](Cc1ccccc1)NC(=O)[C@H](CCCC(=O)O)NC(=O)[C@H](C)NC(=O)[C@H](CC(C)C)NC(=O)[C@H](CCCNC(=N)N)NC(=O)[C@H](CCC(=O)O)NC(=O)[C@@H](NC(=O)[C@H](C)NC(=O)[C@@H]1CCCNC(=O)C[C@H](NC(=O)[C@H](CCCNC(=N)N)NC(=O)CC[C@H](NC(=O)CCCCCCCCCCCCCCCCCCC(=O)O)C(=O)O)C(=O)NCC(=O)N[C@@H]([C@@H](C)O)C(=O)N[C@@H](C)C(=O)N[C@@H]([C@@H](C)O)C(=O)N1)[C@@H](C)O [Compound 20, [19CD]-isoGlu-RD()GTAT-Orn()-ATERLA-Aad-FLQRSSF-Gly(Me)-A-Ile(Me)-LSSTEVGSNT-Hyp-NH2] ({C20 diacid-γGlu}-RDGTAT[Orn]ATERLA[Aad]FLQRSSF[Sar]A[NMeI]LSSTEVGSNT[Hyp]-NH2; lactam 2-7) | FD | FND | FND | 0.009 | 31.1 | 7.8 | 49 | 0.003 | 1.0 |  | 1.3 | <1 | 2.0 | 3.7
CC[C@H](C)[C@@H](C(=O)N[C@@H](CC(C)C)C(=O)N[C@@H](CO)C(=O)N[C@@H](CO)C(=O)N[C@H](C(=O)N[C@@H](CCC(=O)O)C(=O)N[C@H](C(=O)NCC(=O)N[C@@H](CO)C(=O)N[C@@H](CC(N)=O)C(=O)N[C@H](C(=O)N1C[C@H](O)C[C@H]1C(N)=O)[C@@H](C)O)C(C)C)[C@@H](C)O)N(C)C(=O)[C@H](C)NC(=O)CN(C)C(=O)[C@H](Cc1ccccc1)NC(=O)[C@H](CO)NC(=O)[C@H](CO)NC(=O)[C@H](CCCNC(=N)N)NC(=O)[C@H](CCC(N)=O)NC(=O)[C@H](CC(C)C)NC(=O)[C@H](Cc1ccccc1)NC(=O)[C@H](CCCC(=O)O)NC(=O)[C@H](C)NC(=O)[C@H](CC(C)C)NC(=O)[C@H](CCCNC(=N)N)NC(=O)[C@H](CCC(=O)O)NC(=O)[C@@H](NC(=O)[C@H](C)NC(=O)[C@@H]1CCCCNC(=O)C[C@H](NC(=O)[C@H](CCCNC(=N)N)NC(=O)CC[C@H](NC(=O)CCCCCCCCCCCCCCCCCCC(=O)O)C(=O)O)C(=O)NCC(=O)N[C@@H]([C@@H](C)O)C(=O)N[C@@H](C)C(=O)N[C@@H]([C@@H](C)O)C(=O)N1)[C@@H](C)O [Compound 35, [19CD]-isoGlu-RD()GTATK()ATERLA-Aad-FLQRSSF-Gly(Me)-A-Ile(Me)-LSSTEVGSNT-Hyp-NH2] ({C20 diacid-γGlu}-RDGTATKATERLA[Aad]FLQRSSF[Sar]A[NMeI]LSSTEVGSNT[Hyp]-NH2; lactam 2-7) | FND | FND | FND | 0.066 | 36.1 | 12 | 72 | 0.028 | <1 | 2 | <1 | <1 | 1.4 | <1
